From paper PMC8344021, “Discovery of Small Molecule Bak Activator for Lung Cancer Therapy” (Theranostics, 2021)

Test system: H1299, H460 and A549 cells
Test: Sulforhodamine B (SRB) cytotoxicity screening
Assay type: cell-based, human
Conditions: SRB assay
From the text: The BH3 death domain is known to be required for the proapoptotic function of Bak. We chose the BH3 domain binding pocket (aa75-88) of Bak (PDB ID: 2YV6) as a docking site for screening of small molecules using the UCSF DOCK 6.1 program suite and the NCI chemical library (300,000 small molecule) database as we recently described, [20], [29], [34]. Small molecules were ranked according to their energy scores. The top 500 compounds determined to have the highest affinity for the BH3 domain were obtained from the NCI and tested for cytotoxicity in human lung cancer cells (i.e. H1299, H460 and A549 cells) by sulforhodamine B (SRB) assay for further screening as described, [36]. […] We named this lead compound Bak activator BKA-073 (C19H24ClN3O2, MW: 361.87) (Figure 1A). To test the effect of BKA-073 on mitochondrial priming (∆% priming) and apoptotic cell death, human lung cancer A549 cells were treated with increasing concentrations (0, 0.25, 0.5, 0.75, 1.0 µM) of BKA-073, followed by analysis of dynamic BH3 profiling (DBP) at 16h and apoptotic cell death at 72h as described, [37]. […] In addition to lung cancer cell lines, we evaluated the efficacy of BKA-073 in other types of cancer cell lines, including breast cancer (MDA-MB-231 and MCF7), colon cancer (HCT-116), lymphoma (Ramos), multiple myeloma (OPM-1), pancreatic cancer (PANC-1) and osteosarcoma (U2OS) cell lines. […]

Structure (SMILES): COc1ccc2nc3ccccc3c(NCCNCC(C)O)c2c1 (stereo not shown) [BKA-073]
- cytotoxicity among top 500 docking hits: most potent activity
